Measurements as given in patent publication US9199997B2, “Purinone derivative hydrochloride” (ONO PHARMACEUTICAL CO., LTD., priority 2011, dated 2015).
Values after ≈ are worked out from the molar mass of the structure shown.

Key:
[1] = Measurement of solubility (HPLC); format: physicochemical; details: thermodynamic from solid; for solubility at 30 min: after 30 min; for solubility at 24 h: after 24 h
Method: <HPLC Measurement Conditions>
Device: HPLC 1100series, Agilent
Column: YMC-Pack ODS-AM AM-302 (4.6 mm ID×150 mm long)
Column temperature: 25° C.
Mobile phase: 20 mM potassium phosphate monobasic (pH 3.0)/acetonitrile (60:40, isocratic)
Sample rack temperature: 25° C.
Sample injection volume: 10 μL

Blood kinetics in dogs = format: in vivo; details: male, beagle, dog, plasma; solubilized solution (WellSolve), oral gavage 1 mg/kg vs intravenous 1 mg/kg, fasted dogs; read-out: bioavailability (BA)
Method: The kinetic profiles of compound A and the salt thereof (the compound prepared in Example 9) in blood were evaluated in male beagle dogs under fasting conditions. […] For the intravenous and oral solution administrations, a solubilized solution of Compound A dissolved in WellSolve (Celeste Inc.) heated to 60° C. was used. Using the solubilized solutions, doses of 1 mg/1 mL/kg were rapidly administered intravenously with a syringe via a forelimb cephalic vein, and doses of 1 mg/5 mL/kg were administered by gavage using a catheter. […] The concentration of Compound A in the plasma was measured by LC/MS/MS (UPLC/Xevo, Waters). The area under the curve (AUC, ng·h/mL), maximum concentration (Cmax, μg/mL) and clearance (CL, mL/hr/kg) were calculated from the plasma concentration. The bioavailability (BA) of Compound A was calculated from the AUC of the oral dose and the AUC of the intravenous dose.
Moreover, for the oral suspension administration a liquid was prepared by finely pulverizing Compound A and suspending the particles in an aqueous solution of 0.5% methylcellulose, and then administering doses of 3 and 10 mg/kg in the same manner as the forced oral administration by gavage described above. […] The BA values for each administration method and at each concentration were calculated as relative BA by assigning the BA of Compound A in the solubilized solution a value of 100%.

[2] = FaSSIF (artificial intestinal fluid), FaSSIF (pH 6.5)
[3] = FeSSIF (artificial intestinal fluid), FeSSIF (pH 6.5)
[4] = Japanese Pharmacopoeia dissolution test I liquid, simulated gastric fluid, JP dissolution test I liquid (pH 1.2)
[5] = Japanese Pharmacopoeia dissolution test II liquid, aqueous buffer, JP dissolution test II liquid (pH 6.8)
[6] = diluted McIlvaine buffer, aqueous buffer, Dilute McIlvaine buffer (pH 4.0)
[7] = diluted McIlvaine buffer, aqueous buffer, Dilute McIlvaine buffer (pH 7.4)

Structure (SMILES)	solubility at 30 min [1, 2]	solubility at 24 h [1, 2]	solubility at 30 min [1, 3]	solubility at 24 h [1, 3]	solubility at 30 min [1, 4]	solubility at 24 h [1, 4]	solubility at 30 min [1, 5]	solubility at 24 h [1, 5]	solubility at 30 min [1, 6]	solubility at 24 h [1, 6]	solubility at 30 min [1, 7]	solubility at 24 h [1, 7]	solubility at 30 min ([1]; Purified water)	solubility at 24 h ([1]; Purified water)	bioavailability (Blood kinetics in dogs)
CC#CC(=O)N1CC[C@@H](n2c(=O)n(-c3ccc(Oc4ccccc4)cc3)c3c(N)ncnc32)C1.Cl [Example 9, 6-amino-9-[(3R)-1-(2-butynoyl)-3-pyrrolidinyl]-7-(4-phenoxyphenyl)-7,9-dihydro-8H-purin-8-one hydrochloride]	145 µg/mL	118 µg/mL	356 µg/mL	301 µg/mL	1220 µg/mL	1210 µg/mL	112 µg/mL	111 µg/mL	125 µg/mL	117 µg/mL	103 µg/mL	106 µg/mL	130 µg/mL	144 µg/mL	
CC#CC(=O)N1CC[C@@H](n2c(=O)n(-c3ccc(Oc4ccccc4)cc3)c3c(N)ncnc32)C1 [Compound A, 6-amino-9-[(3R)-1-(2-butynoyl)-3-pyrrolidinyl]-7-(4-phenoxyphenyl)-7,9-dihydro-8H-purin-8-one]	35 µg/mL (≈ 77 µM)	36 µg/mL (≈ 79.2 µM)	67 µg/mL (≈ 147 µM)	84 µg/mL (≈ 185 µM)	550 µg/mL (≈ 1210 µM)	717 µg/mL (≈ 1580 µM)	31 µg/mL (≈ 68.2 µM)	32 µg/mL (≈ 70.4 µM)	30 µg/mL (≈ 66 µM)	34 µg/mL (≈ 74.8 µM)	29 µg/mL (≈ 63.8 µM)	29 µg/mL (≈ 63.8 µM)	32 µg/mL (≈ 70.4 µM)	34 µg/mL (≈ 74.8 µM)	115%
